“And” between values parts separate entries of the source, which are not always exact repeats. Equal values may be shown once.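 Five concentrations, 48 hours, 96-well plates. GI50 marks 50% less growth. The concentration for full growth arrest is given as TGI.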
Experiments:
Assay in all cases: DTP human tumour cell line panel, 48 h
[1] = test system: COLO 205 colon
[2] = test system: HOP-62 NSCLC
[3] = test system: LOX IMVI melanoma
[4] = test system: MOLT-4 leukemia
[5] = test system: NCI-H23 lung
[6] = test system: OVCAR-4 ovarian
[7] = test system: OVCAR-5 ovarian
[8] = test system: RPMI-8226 leukemia
[9] = test system: SK-MEL-2 melanoma
[10] = test system: SNB-75 CNS

SMILES | TGI [1] | GI50 [2] | TGI [2] | GI50 [3] | TGI [3] | GI50 [4] | TGI [4] | GI50 [5] | TGI [5] | GI50 [6] | TGI [6] | GI50 [7] | TGI [7] | GI50 [8] | TGI [8] | GI50 [9] | TGI [9] | GI50 [10] | TGI [10] | GI50 [1]
CCC/C=C/C=C/C(=O)OC1/C(=C/C(=O)OC)CC2CC(C(C)O)OC(=O)CC(O)CC3CC(OC(C)=O)C(C)(C)C(O)(CC4C/C(=C/C(=O)OC)CC(/C=C/C(C)(C)C1(O)O2)O4)O3 (stereo not drawn) | 6.88 µM and 11 µM and > 12.5 µM | 10.9 µM and > 12.5 µM | 11 µM and > 12.5 µM | > 10.9 µM and 8.02 µM and > 12.5 µM | > 10.9 µM and 11 µM and > 12.5 µM | 5.48 µM and 3.26 µM and > 12.5 µM | 10.6 µM and 10.5 µM and > 12.5 µM | > 12.5 µM | > 10.9 µM and 11 µM and > 12.5 µM | > 6.88 µM and 3.48 µM and > 12.5 µM | > 6.88 µM and 10.1 µM and > 12.5 µM | > 11 µM | > 12.5 µM | 8.95 µM and > 12.5 µM | > 10.9 µM and 11 µM and > 12.5 µM | > 10.9 µM and 5.77 µM and > 12.5 µM | > 10.9 µM and 11 µM and > 12.5 µM | 10.3 µM and 2.85 µM and > 12.5 µM | 10.9 µM and 9.84 µM and > 12.5 µM | –
COc1ccc(-n2cc(-c3cc(OC)c(OC)c(OC)c3)nc2SCc2cccc(C#N)c2)cc1OC | > 100 µM | > 100 µM | > 100 µM | > 100 µM | > 100 µM | 51.7 µM | > 100 µM | > 100 µM | > 100 µM | 2.12 µM | 39.6 µM | > 100 µM | > 100 µM | > 100 µM | > 100 µM | > 100 µM | > 100 µM | 0.924 µM | > 100 µM | > 100 µM
COc1ccc(C2=C(c3ccc(OC)cc3)C(=O)OC2)cc1 | > 100 µM | 2.25 µM | 24.6 µM | 0.964 µM | 15.1 µM | 1.29 µM | 23.8 µM | 3.46 µM | 30.8 µM | 16 µM | > 100 µM | 20.2 µM | > 100 µM | 1.71 µM | 11.4 µM | 1.48 µM | > 48.6 µM | 3.16 µM | > 100 µM | 1.38 µM
CCc1nc(N)nc(N)c1C#CC(C)c1ccc(-c2ccncc2)cc1Cl (stereo not drawn) | 2.58 µM and 11.7 µM | 0.0266 µM and 0.0528 µM | 1.92 µM and 13.9 µM | < 0.005 µM | 1.37 µM and 11.3 µM | 0.0276 µM and 0.0493 µM | 4.62 µM and 8.45 µM | 0.00854 µM and 0.0332 µM | 5.01 µM and 5.71 µM | – | 7.39 µM and 26.2 µM | 0.115 µM and 0.133 µM | 6.17 µM and 18.6 µM | 0.145 µM and 0.0946 µM | 1.7 µM and 10.8 µM | 0.579 µM and 1.75 µM | 3.33 µM and 17.6 µM | 0.505 µM and 1.67 µM | 2.76 µM and 9.74 µM | 0.0387 µM and 0.0515 µM
C[C@H]1C[C@@H](n2c(Nc3ccc(OC(F)(F)F)cc3)nc3cc(CCC(=O)O)ccc32)CC(C)(C)C1 | 39.4 µM | 20.6 µM | 39.4 µM | 11.8 µM | 25.9 µM | 9.37 µM | 32.6 µM | 12.9 µM | 30.5 µM | 11.2 µM | 29.1 µM | 17 µM | 31.5 µM | 10.1 µM | 50.9 µM | 15 µM | 34.6 µM | 13.8 µM | 28 µM | 18.8 µM
N#CC1=C(N)NC(=O)C(C#N)C12Nc1ccccc1S2 (stereo not drawn) | > 100 µM | > 100 µM | > 100 µM | 80.1 µM | > 100 µM | 95.8 µM | > 100 µM | 41.2 µM | > 100 µM | > 100 µM | > 100 µM | > 100 µM | > 100 µM | 43.2 µM | > 100 µM | 40.7 µM | > 100 µM | > 100 µM | > 100 µM | 89.9 µM
CC1(Cl)C(=O)NC(=O)N([C@H]2C[C@H](O)[C@@H](CO)O2)C1N=[N+]=[N-] (stereo partly drawn) | > 100 µM | – | > 100 µM | – | > 100 µM | – | > 100 µM | – | > 100 µM | – | > 100 µM | – | > 100 µM | – | > 100 µM | – | > 100 µM | – | > 100 µM | –
COc1ccccc1/C=C1\C(=O)N(C(=O)Cc2ccccc2)N=C1C | > 100 µM | – | > 100 µM | – | > 100 µM | – | > 100 µM | – | > 100 µM | – | > 100 µM | – | > 100 µM | – | > 100 µM | – | > 100 µM | – | > 100 µM | –
CC1=CC(=O)NP(=O)(Oc2ccc(Cl)cc2)N1 (stereo not drawn) | > 100 µM | – | > 100 µM | – | > 100 µM | – | > 100 µM | – | > 100 µM | – | > 100 µM | – | > 100 µM | – | > 100 µM | – | > 100 µM | – | > 100 µM | –
COc1ccc([N+](=O)[O-])c2c(NCCCN(C)C)c(C)c(C)nc12 | > 100 µM | – | > 100 µM | – | > 100 µM | – | > 100 µM | – | > 100 µM | – | 63.5 µM | – | > 100 µM | – | > 100 µM | – | > 100 µM | – | > 100 µM | –
Cc1nc(-n2nc(-c3ccccc3)cc2-c2ccccc2)sc1C(=O)CC(=O)C(=O)Nc1ccc(Cl)c(Cl)c1 | > 100 µM | – | > 100 µM | – | > 100 µM | – | > 100 µM | – | > 100 µM | – | > 100 µM | – | > 100 µM | – | > 100 µM | – | > 100 µM | – | > 100 µM | –

Reference: PubChem BioAssay (NCI)
